These results are taken from patent US11230525B2, “Organic sulfur compound, method for preparing same, and pharmaceutical composition for preventing or treating cancer or an inflammatory disease, containing same as active ingredient” (SOOKMYUNG WOMENS UNIVERSITY INDUSTRY-ACADEMIC COOPERATION …, priority 2016, dated 2022).

In general, GI50 refers to the concentration giving 50% growth inhibition.

Assay [1] concerns lung cancer cell line (NCl-H23). The assay is described as follows: Cancer proliferation inhibitory activity (SRB, GI50), NCI-H23. The assay is classed as cell-based. As to conditions: Homo sapiens, 48 hours. The text has this:
(§1) Particularly, the cancer proliferation inhibitory activity of the compounds of comparative examples (Ajoene and the compounds isosteric to Ajoene wherein R1 is allyl or benzyl) and the compounds of examples of the present invention (the compounds not isosteric to Ajoene wherein R^1 is phenyl) was investigated in human cancer cell lines (renal cancer cell line (ACHN), breast cancer cell line (MDA-MB-231), colorectal cancer cell line (HCT-15), prostate cancer cell line (PC-3), gastric cancer cell line (NUGC-3) and lung cancer cell line (NCl-H23)).
(§2) At this time, the cancer cell lines (renal cancer cell line (ACHN), breast cancer cell line (MDA-MB-231), colorectal cancer cell line (HCT-15), prostate cancer cell line (PC-3), gastric cancer cell line (NUGC-3) and lung cancer cell line (NCl-H23)) above were purchased from American Type Culture Collection (Manassas, Va., USA). Cells were cultured in RPMI 1640 supplemented with 10% fetal bovine serum, which were maintained 37° C. under 5% CO2 wet atmosphere. The cells were distributed in a 96-well plate, which was not treated (treated only with 0.1% DMSO) or treated with the compounds of examples of the present (0.1 μM to 10 μM). 48 hours later, the cells were fixed in 50% trichloroacetic acid, followed by staining with 1% acetic acid containing 0.4% sulphorodamine B dissolved therein. The non-conjugated dye was removed by washing with 1% acetic acid, and the protein conjugated dye was extracted with 10 mM Tris base (pH 10.5). Then, OD540 was measured with VersaMax microplate reader (Molecular devices, Sunnyvale, Calif., USA). GI50 was calculated by using GraphPad Prism software (GraphPad Software, Inc., San Diego, Calif., USA).
(§3) Based on the results obtained in experimental example 1-1 above, the derivatives wherein R^1 is phenyl were additionally synthesized. The cancer proliferation inhibitory activity of the derivatives was evaluated by the same manner as described in experimental example 1-1.

Assay [2] deals with colorectal cancer cell line (HCT-15). The assay is described as follows: Cancer proliferation inhibitory activity (SRB, GI50), HCT-15. The assay is classed as cell-based. Conditions: Homo sapiens, 48 hours.
Excerpt: as §1, §2, §3

Assay [3] concerns gastric cancer cell line (NUGC-3). The assay is described as follows: Cancer proliferation inhibitory activity (SRB, GI50), NUGC-3. The assay is classed as cell-based. As to conditions: Homo sapiens, 48 hours.
Excerpt: as §1, §2, §3

Assay [4] has as its system prostate cancer cell line (PC-3). As to the kind of experiment: Cancer proliferation inhibitory activity (SRB, GI50), PC-3. As to conditions: Homo sapiens, 48 hours. The assay is classed as cell-based.
Excerpt: as §1, §2, §3

The subject of assay [5] is breast cancer cell line (MDA-MB-231). The assay is described as follows: Cancer proliferation inhibitory activity (SRB, GI50), MDA-MB-231. The assay is classed as cell-based. As to conditions: Homo sapiens, 48 hours.
Excerpt: as §1, §2, §3

In assay [6] the test system is renal cancer cell line (ACHN). The assay is described as follows: Cancer proliferation inhibitory activity (SRB, GI50), ACHN. The assay is classed as cell-based. Conditions: Homo sapiens, 48 hours.
Excerpt: as §1, §2, §3

In the next assay the target is T1, HDAC 8 (Homo sapiens, UniProt Q9BY41).
T1 sequence (Q9BY41 1-377): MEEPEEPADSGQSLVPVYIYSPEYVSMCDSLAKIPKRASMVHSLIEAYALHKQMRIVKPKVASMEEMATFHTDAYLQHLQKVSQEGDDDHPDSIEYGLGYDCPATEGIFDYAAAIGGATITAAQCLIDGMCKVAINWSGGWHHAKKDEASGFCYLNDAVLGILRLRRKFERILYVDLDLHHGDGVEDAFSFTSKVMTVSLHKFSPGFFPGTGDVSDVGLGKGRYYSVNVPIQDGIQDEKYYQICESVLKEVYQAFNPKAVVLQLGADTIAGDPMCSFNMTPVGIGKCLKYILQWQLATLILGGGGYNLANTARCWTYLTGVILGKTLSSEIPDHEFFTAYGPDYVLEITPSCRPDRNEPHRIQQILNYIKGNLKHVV
The assay is described as follows: HDAC enzyme fluorescence assay, HDAC 8. In kind it is biochemical. More on the design: Inhibitory activity (%) HDAC 8: concentration or dose not given beside the values. As to conditions: (HDAC inhibitory activity of example compound/HDAC inhibitory activity of SAHA) × 100. The procedure:
Particularly, HDAC enzyme analysis was performed based on a uniform fluorescence emission assay. First, the compounds of examples of the present invention or comparative example 1 were diluted at different concentrations, which were treated to the analysis buffer containing 25 mM HEPES (pH 8.0), 137 mM NaCl, 1 mM MgCl2 and 2.7 mM KCL, followed by culture of the recombinant HDAC enzyme. 10 minutes later, Boc-Lys(acetyl)-AMC, the fluorescence inducing substrate, was added thereto, followed by further culture at 37° C. At this time, the concentration of the fluorescence inducing substrate and the culture time were adjusted according to the isotypes of the HDAC enzyme. The reaction was terminated by treating trypsin at room temperature for 20 minutes. The fluorescence intensity was measured using a fluorescence analyzer at an excitation wavelength of 380 nm and an emission wavelength of 460 nm, respectively. The inhibition rate was calculated from the measured fluorescence intensity of each well with comparing to that of the control well. IC50 of the compound was calculated by analyzing the dose-reaction inhibition curve.
The HDAC 8 inhibitory activity was presented as percentage of relative activity by the inhibitory activity of SAHA (Vorinostat) used as a reference compound.

Consider `C=CC[S+]([O-])C/C=C\SSCc1ccccc1` (stereo not shown) [Comparative Example 3, (Z)-1-(3-(allylsulfinyl)prop-1-enyl)-2-benzyldisulfane, reference compound], for which the GI50 was 3.59 µM in assay [1]; 4.96 µM in assay [2]; 2.05 µM in assay [3]; 2.31 µM in assay [4]; 4.64 µM in assay [5]; 3.26 µM in assay [6].

For `C=CCSS/C=C\C[S+]([O-])Cc1ccccc1` (stereo not shown) [Comparative Example 4, (Z)-1-allyl-2-(3-(benzylsulfinyl)prop-1-enyl)disulfane, reference compound], the concentration for 50% growth inhibition (GI50) in assay [1] stood at 5.98 µM; in assay [2], 5.93 µM; in assay [3], 8.07 µM; in assay [4] it was 3.28 µM; in assay [6], 5.32 µM.

For `C=CCSS/C=C/C[S+]([O-])Cc1ccccc1` (stereo not shown) [Comparative Example 5, (E)-1-allyl-2-(3-(benzylsulfinyl)prop-1-enyl)disulfane, reference compound], the GI50 in assay [1] turned out to be 4.41 µM; in assay [2], 9.1 µM; in assay [3] it was 10.3 µM; in assay [4], 6.85 µM; in assay [5], 5.45 µM; in assay [6], 4.43 µM.

`CCCSS/C=C/C[S+]([O-])Cc1ccccc1` (stereo not shown) [Comparative Example 6, (E)-1-(3-(benzylsulfinyl)prop-1-enyl)-2-propyldisulfane, reference compound]: the GI50 in assay [1] was found to be 2.93 µM; in assay [2], 3.03 µM; in assay [3] it was 3.27 µM; in assay [5], 2.19 µM.

In the case of `[O-][S+](C/C=C/SSCc1ccccc1)Cc1ccccc1` (stereo not shown) [Comparative Example 7, (E)-1-benzyl-2-(3-(benzylsulfinyl)prop-1-enyl)disulfane, reference compound], the concentration for 50% growth inhibition (GI50) in assay [1] amounted to 6.41 µM; in assay [4] it was 3.88 µM; in assay [6] it was 4.22 µM.

Take `[O-][S+](C/C=C/SSCc1ccc(F)cc1)Cc1ccccc1` (stereo not shown) [Comparative Example 8, (E)-1-(3-(benzylsulfinyl)prop-1-enyl)-2-(4-fluorobenzyl)disulfane, reference compound]: the GI50 was determined as 2.83 µM in assay [1], 2.27 µM in assay [2], 2.04 µM in assay [4] and 4.1 µM in assay [6].

In the case of `[O-][S+](C/C=C\SSCc1ccc(F)cc1)Cc1ccccc1` (stereo not shown) [Comparative Example 9, (Z)-1-(3-(benzylsulfinyl)prop-1-enyl)-2-(4-fluorobenzyl)disulfane, reference compound], the concentration for 50% growth inhibition (GI50) in assay [5] worked out at 3.24 µM; in assay [6], 2.32 µM.

As to `C=CCSS/C=C/C[S+]([O-])c1ccccc1` (stereo not shown) [Example 1, (E)-1-allyl-2-(3-(phenylsulfinyl)prop-1-enyl)disulfane], the “Inhibitory activity (%) HDAC 8” value at HDAC 8 came to 32.1%.

Turning to `C=CCSS/C=C\C[S+]([O-])c1ccccc1` (stereo not shown) [Example 2, (Z)-1-allyl-2-(3-(phenylsulfinyl)prop-1-enyl)disulfane], the “Inhibitory activity (%) HDAC 8” value on HDAC 8 was determined as 37.5%.

Take `CCCSS/C=C/C[S+]([O-])c1ccccc1` (stereo not shown) [Example 3, (E)-1-(3-(phenylsulfinyl)prop-1-enyl)-2-propyldisulfane]: the “Inhibitory activity (%) HDAC 8” value on HDAC 8 is on record as 43.8%. Moreover, the 50% growth inhibitory concentration (GI50) came to 2.8 µM in assay [1]; 2.64 µM in assay [2]; 2.93 µM in assay [3]; 4.74 µM in assay [4]; 2.15 µM in assay [5]; 3.9 µM in assay [6].

Regarding `CCCSS/C=C\C[S+]([O-])c1ccccc1` (stereo not shown) [Example 4, (Z)-1-(3-(phenylsulfinyl)prop-1-enyl)-2-propyldisulfane], the “Inhibitory activity (%) HDAC 8” value on HDAC 8 was determined as 115.2%.

With `[O-][S+](C/C=C/SSCc1ccccc1)c1ccccc1` (stereo not shown) [Example 5, (E)-1-benzyl-2-(3-(phenylsulfinyl)prop-1-enyl)disulfane], the “Inhibitory activity (%) HDAC 8” value at HDAC 8 worked out at 88.6%. For the same compound, the concentration for 50% growth inhibition (GI50) in assay [1] is 2.98 µM; in assay [2] it was 3.97 µM; in assay [3], 3.71 µM; in assay [4], 3.19 µM; in assay [5] it was 6.27 µM; in assay [6], 5.75 µM.

Consider `[O-][S+](C/C=C/SSCc1ccc(F)cc1)c1ccccc1` (stereo not shown) [Example 7, (E)-1-(4-fluorobenzyl)-2-(3-(phenylsulfinyl)prop-1-enyl)disulfane], for which, at HDAC 8, the “Inhibitory activity (%) HDAC 8” value was found to be 37.1%. For the same compound, the GI50 in assay [1] is 7.69 µM; in assay [2], 10.4 µM; in assay [3], 6.84 µM; in assay [4], 3.89 µM; in assay [5], 3.24 µM; in assay [6], 7.11 µM.

`[O-][S+](C/C=C\SSCc1ccc(F)cc1)c1ccccc1` (stereo not shown) [Example 8, (Z)-1-(4-fluorobenzyl)-2-(3-(phenylsulfinyl)prop-1-enyl)disulfane]: on HDAC 8, the “Inhibitory activity (%) HDAC 8” value was 24.9%.

On to `COc1ccc(CSS/C=C/C[S+]([O-])c2ccccc2)cc1` (stereo not shown) [Example 9, (E)-1-(4-methoxybenzyl)-2-(3-(phenylsulfinyl)prop-1-enyl)disulfane], for which the “Inhibitory activity (%) HDAC 8” value on HDAC 8 was 48.7%. Moreover, the GI50 is 1.45 µM in assay [1]; 3.03 µM in assay [2]; 1.43 µM in assay [3]; 2.72 µM in assay [4]; 1.54 µM in assay [5]; 2.94 µM in assay [6].

Regarding `COc1ccc(CSS/C=C\C[S+]([O-])c2ccccc2)cc1` (stereo not shown) [Example 10, (Z)-1-(4-methoxybenzyl)-2-(3-(phenylsulfinyl)prop-1-enyl)disulfane], the “Inhibitory activity (%) HDAC 8” value on HDAC 8 is reported as 73.8%. The concentration for 50% growth inhibition (GI50) is 2.03 µM in assay [1]; 2.33 µM in assay [2]; 1.66 µM in assay [3]; 4.24 µM in assay [4]; 3.58 µM in assay [5]; 2.72 µM in assay [6].

With `[O-][S+](C/C=C/SSCc1ccc(Cl)cc1)c1ccccc1` (stereo not shown) [Example 11, (E)-1-(4-chlorobenzyl)-2-(3-(phenylsulfinyl)prop-1-enyl)disulfane], on HDAC 8, the “Inhibitory activity (%) HDAC 8” value worked out at 74.4%. For the same compound, the GI50 came out at 2 µM in assay [1]; 1.67 µM in assay [2]; 1.16 µM in assay [3]; 1.3 µM in assay [4]; 1.56 µM in assay [5]; 1.22 µM in assay [6].

Consider `C=CCSS/C=C\C[S+]([O-])c1cccc(OC)c1` (stereo not shown) [Example 16, (Z)-1-allyl-2-(3-(3-methoxyphenylsulfinyl)prop-1-enyl)disulfane], for which, on HDAC 8, the “Inhibitory activity (%) HDAC 8” value is reported as 105.3%.

As for `COc1cccc([S+]([O-])C/C=C/SSCc2ccc(Cl)c(Cl)c2)c1` (stereo not shown) [Example 25, (E)-1-(3,4-dichlorobenzyl)-2-(3-(3-methoxyphenylsulfinyl)prop-1-enyl)disulfane], the “Inhibitory activity (%) HDAC 8” value at HDAC 8 amounted to 138.9%.

As for `COc1ccc([S+]([O-])C/C=C/SSCc2ccccc2)cc1` (stereo not shown) [Example 31, (E)-1-benzyl-2-(3-(4-methoxyphenylsulfinyl)prop-1-enyl)disulfane], the “Inhibitory activity (%) HDAC 8” value at HDAC 8 is listed as 74.6%.
